# Test results published in patent publication US12679878B2, “CRF2 receptor agonists and their use in therapy” (SANOFI, priority 2020, dated 2026).
# Like-named read-outs stand apart in the source and are kept apart here. Starred links: 1 amine or outer side, 2 acyl side, 3 side chain; linkers in the order of their positions; H or OH if unused. Non-standard residues stand in square brackets, D forms with d. Residues, ends and D or L forms follow the SMILES beside them. Groups on a side chain read outwards from the residue. *: point of attachment. C20 diacid = O=C(O)CCCCCCCCCCCCCCCCCCC(=O)*; C18 diacid = O=C(O)CCCCCCCCCCCCCCCCC(=O)*; γGlu = O=C(O)[C@H](CCC(=O)[*:2])N[*:1]; AEEA = NCCOCCOCC(=O)O; Aib = CC(C)(N)C(=O)O
# What was measured:
# Assay type in all cases: cell-based
# human CRF2α receptor = target: T1, human CRF2α receptor (Homo sapiens, UniProt Q13324); test: cAMP agonism at human CRF2 α receptor in TeloHEAC cells (Example 7); conditions: cAMP HTRF, TeloHEAC cells stably expressing human CRF2 α
# T1 construct: expressed in transfected cells; host or cells: TeloHEAC
# T1 sequence (Q13324 1-411): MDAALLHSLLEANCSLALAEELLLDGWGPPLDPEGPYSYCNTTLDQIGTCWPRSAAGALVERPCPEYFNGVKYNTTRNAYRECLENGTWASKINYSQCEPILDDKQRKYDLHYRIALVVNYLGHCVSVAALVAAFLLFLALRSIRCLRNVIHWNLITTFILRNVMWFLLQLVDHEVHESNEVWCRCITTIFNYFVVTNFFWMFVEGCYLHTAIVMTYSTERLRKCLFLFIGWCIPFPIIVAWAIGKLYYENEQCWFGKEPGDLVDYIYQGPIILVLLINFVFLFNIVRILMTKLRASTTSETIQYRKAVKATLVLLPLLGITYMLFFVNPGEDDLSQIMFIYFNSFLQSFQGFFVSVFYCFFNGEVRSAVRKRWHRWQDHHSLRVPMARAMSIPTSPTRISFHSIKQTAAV
# In short: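 HTRF ratio 665/620 nm, read 1 h after lysis reagents, reports cAMP. Cells: thawed stocks, 2000/well, 30 min RT with compound in HBSS, 20 mM HEPES, 0 or 0.1% HSA, 2 mM IBMX. Activity normalised to UCN2 1000 nM = 100%; EC50 from half-maximal activation.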
# rat CRF2R α receptor = test: cAMP agonism at rat CRF2R α receptor in A7R5 rat aortic smooth muscle cells (Example 8); conditions: cAMP HTRF, A7R5 rat aortic smooth muscle cell line, 0% HSA
# In short: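 Thawed cryopreserved A7R5 cells in HBSS/20 mM HEPES (0 or 0.1% HSA) with 2 mM IBMX, 2000 cells/well, were exposed to compound for 30 min at room temperature. cAMP was read by HTRF (665/620 nm ratio) after 1 h with lysis reagents. Activity was normalised to 1000 nM urocortin 2 as 100%, and EC50 was taken as the concentration giving 50% of maximal activation.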
# CRF1R receptor = target: T2, CRF1R receptor (Homo sapiens, UniProt P34998); test: cAMP activity at anti-target CRF1R, CRF1R-overexpression CHO cell line (Example 9); conditions: CRF1R-overexpression CHO cell line; for EC50: 0% HSA; for Emax: read-out: Emax (%)
# T2 construct: host or cells: CHO-K1 clone 2
# T2 sequence (P34998 24-415): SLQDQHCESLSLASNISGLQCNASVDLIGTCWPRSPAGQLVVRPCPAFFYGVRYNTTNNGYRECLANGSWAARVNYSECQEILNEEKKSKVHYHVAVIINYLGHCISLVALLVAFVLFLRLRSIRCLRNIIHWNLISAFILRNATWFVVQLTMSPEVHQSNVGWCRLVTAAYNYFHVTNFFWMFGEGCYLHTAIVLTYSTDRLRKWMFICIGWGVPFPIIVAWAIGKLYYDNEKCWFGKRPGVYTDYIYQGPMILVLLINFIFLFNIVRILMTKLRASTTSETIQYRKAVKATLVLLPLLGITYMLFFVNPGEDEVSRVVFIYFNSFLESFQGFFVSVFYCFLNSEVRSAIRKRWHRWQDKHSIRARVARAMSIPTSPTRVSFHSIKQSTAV
# In short: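 cAMP accumulation was read by HTRF after 30 min at room temperature of compound treatment. Cells were cryopreserved CHO cells overexpressing CRF1R, plated at 2000/well in IBMX (2 mM)-containing HBSS/HEPES buffer with 0 or 0.1% HSA. Activity was normalized to 1000 nM UCN2 as 100%.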
# [1] = 0% HSA, read-out: EC50 [nM], 0% HSA
# [2] = 0.1% HSA, read-out: EC50 [nM], 0.1% HSA
EC50 (human CRF2α receptor; [1]) [nM],EC50 (rat CRF2R α receptor) [nM],EC50 (CRF1R receptor) [nM],Emax (CRF1R receptor) [%],EC50 (human CRF2α receptor; [2]) [nM],SMILES
0.61,7.33,> 1000,0.02,–,CC[C@H](C)[C@H](N)C(=O)N[C@H](C(=O)N[C@@H](CC(C)C)C(=O)N[C@@H](CO)C(=O)N[C@@H](CC(C)C)C(=O)N[C@@H](CC(=O)O)C(=O)N[C@H](C(=O)N1CCC[C@H]1C(=O)N[C@H](C(=O)N[C@@H](CCCCN)C(=O)N[C@@H](CC(C)C)C(=O)N[C@@H](CCCCNC(=O)COCCOCCNC(=O)COCCOCCNC(=O)CC[C@H](NC(=O)CCCCCCCCCCCCCCCCC(=O)O)C(=O)O)C(=O)N[C@@H](CCCCN)C(=O)NC(C)(C)C(=O)N[C@@H](CC(C)C)C(=O)N[C@@H](CC(C)C)C(=O)N[C@@H](CCC(=O)O)C(=O)N[C@@H](CCC(N)=O)C(=O)N[C@@H](CCC(=O)O)C(=O)N[C@@H](CCCNC(=N)N)C(=O)N[C@@H](CCC(N)=O)C(=O)N[C@@H](CCCCN)C(=O)N[C@@H](CCCCN)C(=O)N[C@@H](CCC(N)=O)C(=O)N[C@@H](CCCNC(=N)N)C(=O)N[C@@H](CCC(=O)O)C(=O)N[C@@H](CCC(N)=O)C(=O)N[C@@H](C)C(=O)N[C@@H](CCC(=O)O)C(=O)N[C@H](C(=O)N[C@@H](CC(N)=O)C(=O)N[C@@H](CCCCN)C(=O)N[C@@H](CCC(N)=O)C(=O)N[C@H](C(=O)N[C@@H](CC(C)C)C(=O)N[C@@H](C)C(=O)N[C@@H](CCC(N)=O)C(=O)N[C@H](C(N)=O)C(C)C)[C@@H](C)CC)[C@@H](C)O)[C@@H](C)CC)C(C)C)C(C)C [compound 69] (H-IVLSLDVPIKLK([AEEA-AEEA-γGlu-C18 diacid])K[Aib]LLEQERQKKQREQAETNKQILAQV-NH2; N-terminus assumed)
0.91,8.72,> 1000,3.03,–,CC[C@H](C)[C@H](N)C(=O)N[C@H](C(=O)N[C@@H](CC(C)C)C(=O)N[C@@H](CO)C(=O)N[C@@H](CC(C)C)C(=O)N[C@@H](CC(=O)O)C(=O)N[C@H](C(=O)N1CCC[C@H]1C(=O)N[C@H](C(=O)N[C@@H](CCCCN)C(=O)N[C@@H](CC(C)C)C(=O)N[C@@H](CCCCNC(=O)COCCOCCNC(=O)COCCOCCNC(=O)CC[C@H](NC(=O)CCCCCCCCCCCCCCCCC(=O)O)C(=O)O)C(=O)N[C@@H](CCC(N)=O)C(=O)N[C@H](C(=O)N[C@@H](CC(C)C)C(=O)N[C@@H](CC(C)C)C(=O)N[C@@H](CCC(=O)O)C(=O)N[C@@H](CCC(N)=O)C(=O)N[C@@H](CCC(=O)O)C(=O)N[C@@H](CCCNC(=N)N)C(=O)N[C@@H](CCC(N)=O)C(=O)N[C@@H](CCCCN)C(=O)N[C@@H](CCCCN)C(=O)N[C@@H](CCC(N)=O)C(=O)N[C@@H](CCCNC(=N)N)C(=O)N[C@@H](CCC(=O)O)C(=O)N[C@@H](CCC(N)=O)C(=O)N[C@@H](C)C(=O)N[C@@H](CCC(=O)O)C(=O)N[C@H](C(=O)N[C@@H](CC(N)=O)C(=O)NC(C)(C)C(=O)N[C@@H](CCC(N)=O)C(=O)N[C@H](C(=O)N[C@@H](CC(C)C)C(=O)N[C@@H](C)C(=O)N[C@@H](CCC(N)=O)C(=O)N[C@H](C(N)=O)C(C)C)[C@@H](C)CC)[C@@H](C)O)[C@@H](C)CC)[C@@H](C)CC)C(C)C)C(C)C [compound 70] (H-IVLSLDVPIKLK([AEEA-AEEA-γGlu-C18 diacid])QILLEQERQKKQREQAETN[Aib]QILAQV-NH2; N-terminus assumed)
0.9,5.2,> 1000,12.7,92.5,CC[C@H](C)[C@H](N)C(=O)N[C@H](C(=O)N[C@@H](CC(C)C)C(=O)N[C@@H](CO)C(=O)N[C@@H](CC(C)C)C(=O)N[C@@H](CC(=O)O)C(=O)N[C@H](C(=O)N1CCC[C@H]1C(=O)N[C@H](C(=O)N[C@@H](CCCCN)C(=O)N[C@@H](CC(C)C)C(=O)N[C@@H](CCCCNC(=O)COCCOCCNC(=O)COCCOCCNC(=O)CC[C@H](NC(=O)CCCCCCCCCCCCCCCCCCC(=O)O)C(=O)O)C(=O)N[C@@H](CCC(N)=O)C(=O)N[C@H](C(=O)N[C@@H](CC(C)C)C(=O)N[C@@H](CC(C)C)C(=O)N[C@@H](CCC(=O)O)C(=O)N[C@@H](CCC(N)=O)C(=O)N[C@@H](CCC(=O)O)C(=O)N[C@@H](CCCNC(=N)N)C(=O)N[C@@H](CCC(N)=O)C(=O)N[C@@H](CCCCN)C(=O)N[C@@H](CCCCN)C(=O)N[C@@H](CCC(N)=O)C(=O)N[C@@H](CCCNC(=N)N)C(=O)N[C@@H](CCC(=O)O)C(=O)N[C@@H](CCC(N)=O)C(=O)N[C@@H](C)C(=O)N[C@@H](CCC(=O)O)C(=O)N[C@H](C(=O)N[C@@H](CC(N)=O)C(=O)NC(C)(C)C(=O)N[C@@H](CCC(N)=O)C(=O)N[C@H](C(=O)N[C@@H](CC(C)C)C(=O)N[C@@H](C)C(=O)N[C@@H](CCC(N)=O)C(=O)N[C@H](C(N)=O)C(C)C)[C@@H](C)CC)[C@@H](C)O)[C@@H](C)CC)[C@@H](C)O)C(C)C)C(C)C [compound 80] (H-IVLSLDVPTKLK([AEEA-AEEA-γGlu-C20 diacid])QILLEQERQKKQREQAETN[Aib]QILAQV-NH2)
0.1,0.73,> 1000,0.14,3.58,CC[C@H](C)[C@H](N)C(=O)N[C@H](C(=O)N[C@@H](CC(C)C)C(=O)N[C@@H](CO)C(=O)N[C@@H](CC(C)C)C(=O)N[C@@H](CC(=O)O)C(=O)N[C@H](C(=O)N1CCC[C@H]1C(=O)N[C@H](C(=O)N[C@@H](CCCCN)C(=O)N[C@@H](CC(C)C)C(=O)N[C@@H](CCCCNC(=O)COCCOCCNC(=O)COCCOCCNC(=O)CC[C@H](NC(=O)CCCCCCCCCCCCCCCCC(=O)O)C(=O)O)C(=O)N[C@@H](CCC(N)=O)C(=O)N[C@H](C(=O)N[C@@H](CC(C)C)C(=O)N[C@@H](CC(C)C)C(=O)N[C@@H](CCCCN)C(=O)N[C@@H](CCC(N)=O)C(=O)N[C@@H](CCC(=O)O)C(=O)N[C@@H](CCCNC(=N)N)C(=O)N[C@@H](CCC(N)=O)C(=O)N[C@@H](CCCCN)C(=O)N[C@@H](CCCCN)C(=O)N[C@@H](CCC(N)=O)C(=O)N[C@@H](CCCNC(=N)N)C(=O)N[C@@H](CCC(=O)O)C(=O)N[C@@H](CCC(N)=O)C(=O)N[C@@H](C)C(=O)N[C@@H](CCC(=O)O)C(=O)N[C@H](C(=O)N[C@@H](CC(N)=O)C(=O)N[C@@H](CCCCN)C(=O)N[C@@H](CCC(N)=O)C(=O)N[C@H](C(=O)N[C@@H](CC(C)C)C(=O)N[C@@H](C)C(=O)N[C@@H](CCC(N)=O)C(=O)N[C@H](C(N)=O)C(C)C)[C@@H](C)CC)[C@@H](C)O)[C@@H](C)CC)[C@@H](C)CC)C(C)C)C(C)C [compound 85] (H-IVLSLDVPIKLK([AEEA-AEEA-γGlu-C18 diacid])QILLKQERQKKQREQAETNKQILAQV-NH2; N-terminus assumed)
